Results from PubChem BioAssay AID1963974 (Molecular Pharmacology Branch, DTP, NCI, 2024).

Test system: 648629-189-R-J1-PDC spheroids with HUVEC/MSC, viability
Experiment: Anticancer human tumor 648629-189-R-J1-PDC patient-derived bladder carcinoma cell line growth inhibition [PI3K]
Conditions: for viability, T/C: stronger effect = lower value
In short: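 Tumor cells were combined with HUVEC and MSCs into spheroids, then dosed with PI3K-inhibitor combinations over half-log ranges capped near clinical Cmax or 10 microM.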

[1] = curve of first compound, second compound 0.0316 µM
[2] = curve of first compound, second compound 0.1 µM
[3] = curve of first compound, second compound 0.316 µM
[4] = curve of first compound, second compound 1 µM
[5] = curve of first compound, second compound 3.16 µM
[6] = curve of first compound, second compound 10 µM
[7] = second compound 0.0316 µM, first compound 0.0316 µM
[8] = second compound 0.0316 µM, first compound 0.1 µM
[9] = second compound 0.0316 µM, first compound 0.316 µM
[10] = second compound 0.0316 µM, first compound 1 µM
[11] = second compound 0.0316 µM, first compound 3.16 µM
[12] = second compound 0.0316 µM, first compound 10 µM
[13] = second compound 0.1 µM, first compound 0.0316 µM
[14] = second compound 0.1 µM, first compound 0.1 µM
[15] = second compound 0.1 µM, first compound 0.316 µM
[16] = second compound 0.1 µM, first compound 1 µM
[17] = second compound 0.1 µM, first compound 3.16 µM
[18] = second compound 0.1 µM, first compound 10 µM
[19] = second compound 0.316 µM, first compound 0.0316 µM
[20] = second compound 0.316 µM, first compound 0.1 µM
[21] = second compound 0.316 µM, first compound 0.316 µM
[22] = second compound 0.316 µM, first compound 1 µM
[23] = second compound 0.316 µM, first compound 3.16 µM
[24] = second compound 0.316 µM, first compound 10 µM
[25] = second compound 1 µM, first compound 0.0316 µM
[26] = second compound 1 µM, first compound 0.1 µM
[27] = second compound 1 µM, first compound 0.316 µM
[28] = second compound 1 µM, first compound 1 µM
[29] = second compound 1 µM, first compound 3.16 µM
[30] = second compound 1 µM, first compound 10 µM
[31] = second compound 3.16 µM, first compound 0.0316 µM
[32] = second compound 3.16 µM, first compound 0.1 µM
[33] = second compound 3.16 µM, first compound 0.316 µM
[34] = second compound 3.16 µM, first compound 1 µM
[35] = second compound 3.16 µM, first compound 3.16 µM
[36] = second compound 3.16 µM, first compound 10 µM
[37] = second compound 10 µM, first compound 0.0316 µM
[38] = second compound 10 µM, first compound 0.1 µM
[39] = second compound 10 µM, first compound 0.316 µM
[40] = second compound 10 µM, first compound 1 µM
[41] = second compound 10 µM, first compound 3.16 µM
[42] = second compound 10 µM, first compound 10 µM
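Further: spheroids exposed to agents for seven days before reading.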
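Wherever viability, T/C is given: percent of vehicle control luminescence where 100% = DMSO treated spheroids.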

Work on `CC1(C)CCC(CN2CCN(c3ccc(C(=O)NS(=O)(=O)c4ccc(NCC5CCOCC5)c([N+](=O)[O-])c4)c(Oc4cnc5[nH]ccc5c4)c3)CC2)=C(c2ccc(Cl)cc2)C1` + Cc1nc(NC(=O)N2CCCC2C(N)=O)sc1-c1ccnc(C(C)(C)C(F)(F)F)c1 yielded an IC50 [1] of 4.85 µM, an IC50 [2] of 4.71 µM and an IC50 [3] of 4.72 µM. The IC50 [4] was 4.73 µM, the IC50 [5] was 3.71 µM and the IC50 [6] was < 0.0316 µM. For the same molecule, the viability, T/C [7] was 122%, the viability, T/C [8] was 100% and the viability, T/C [9] was 102%. The viability, T/C [10] was 91.6%, the viability, T/C [11] was 78.4% and the viability, T/C [12] was 9.8%. For the same molecule, the viability, T/C [13] was 106%, the viability, T/C [14] was 102% and the viability, T/C [15] was 106%. For the same molecule, the viability, T/C [16] was 94.9%, the viability, T/C [17] was 71.6% and the viability, T/C [18] was 9.33%. It also gave a viability, T/C [19] of 98.3%, a viability, T/C [20] of 85.1% and a viability, T/C [21] of 92.2%. For the same molecule, the viability, T/C [22] was 84.4%, the viability, T/C [23] was 72.5% and the viability, T/C [24] was 9.78%. The viability, T/C [25] was 83.8%, the viability, T/C [26] was 78.1% and the viability, T/C [27] was 74.3%. For the same molecule, the viability, T/C [28] was 78.5%, the viability, T/C [29] was 73.2% and the viability, T/C [30] was 6.85%. It also gave a viability, T/C [31] of 61.2%, a viability, T/C [32] of 57% and a viability, T/C [33] of 58.3%. The viability, T/C [34] was 57.9%, the viability, T/C [35] was 56% and the viability, T/C [36] was 12.8%. The viability, T/C [37] was 43.5%, the viability, T/C [38] was 37.1% and the viability, T/C [39] was 40.1%. It also gave a viability, T/C [40] of 38.3%, a viability, T/C [41] of 43.1% and a viability, T/C [42] of 7.34%.

In the case of `CC1(C)CCC(Nc2ncc(C(F)(F)F)c(-c3c[nH]c4c(P(C)(C)=O)c(C#N)ccc34)n2)CN1` (stereo not drawn) + COc1c(OCCCN2CCOCC2)ccc2c3n(c(=NC(=O)c4cnc(N)nc4)nc12)CCN3, the IC50 (curve of first compound, second compound 0.00316 µM) is reported as < 0.0316 µM, the IC50 (curve of first compound, second compound 0.01 µM) is reported as < 0.0316 µM and the IC50 [1] is reported as < 0.0316 µM. The IC50 [2] was < 0.0316 µM, the IC50 [3] was < 0.0316 µM and the IC50 [4] was < 0.0316 µM. It also gave a viability, T/C (second compound 0.00316 µM, first compound 0.0316 µM) of 25.2%, a viability, T/C (second compound 0.00316 µM, first compound 0.1 µM) of 25.7% and a viability, T/C (second compound 0.00316 µM, first compound 0.316 µM) of 31.6%. For the same molecule, the viability, T/C (second compound 0.00316 µM, first compound 1 µM) was 31.4%, the viability, T/C (second compound 0.00316 µM, first compound 3.16 µM) was 41.1% and the viability, T/C (second compound 0.00316 µM, first compound 10 µM) was 4.79%. The viability, T/C (second compound 0.01 µM, first compound 0.0316 µM) was 28.9%, the viability, T/C (second compound 0.01 µM, first compound 0.1 µM) was 25.2% and the viability, T/C (second compound 0.01 µM, first compound 0.316 µM) was 25.1%. For the same molecule, the viability, T/C (second compound 0.01 µM, first compound 1 µM) was 30.8%, the viability, T/C (second compound 0.01 µM, first compound 3.16 µM) was 35.1% and the viability, T/C (second compound 0.01 µM, first compound 10 µM) was 3.26%. For the same molecule, the viability, T/C [7] was 26.3%, the viability, T/C [8] was 23.6% and the viability, T/C [9] was 26.5%. It also gave a viability, T/C [10] of 27.7%, a viability, T/C [11] of 31% and a viability, T/C [12] of 9.93%. For the same molecule, the viability, T/C [13] was 22%, the viability, T/C [14] was 22.2% and the viability, T/C [15] was 19.9%. The viability, T/C [16] was 21.8%, the viability, T/C [17] was 21% and the viability, T/C [18] was 1.86%. For the same molecule, the viability, T/C [19] was 15.5%, the viability, T/C [20] was 13.7% and the viability, T/C [21] was 13.2%. For the same molecule, the viability, T/C [22] was 16.3%, the viability, T/C [23] was 12.5% and the viability, T/C [24] was 1.02%. The viability, T/C [25] was 6.13%, the viability, T/C [26] was 5.76% and the viability, T/C [27] was 6.72%. The viability, T/C [28] was 8.34%, the viability, T/C [29] was 7.64% and the viability, T/C [30] was 1.32%.

For `CC1(C)CCC(CN2CCN(c3ccc(C(=O)NS(=O)(=O)c4ccc(NCC5CCOCC5)c([N+](=O)[O-])c4)c(Oc4cnc5[nH]ccc5c4)c3)CC2)=C(c2ccc(Cl)cc2)C1` + CC(Nc1ncnc2nc[nH]c12)c1cc2cccc(Cl)c2c(=O)n1-c1ccccc1, the IC50 [1] was > 10 µM, the IC50 [2] was > 10 µM and the IC50 [3] was > 10 µM. The IC50 [4] was > 10 µM, the IC50 [5] was > 10 µM and the IC50 [6] was > 10 µM. For the same molecule, the viability, T/C [7] was 112%, the viability, T/C [8] was 95.7% and the viability, T/C [9] was 97.3%. For the same molecule, the viability, T/C [10] was 93.1%, the viability, T/C [11] was 83.4% and the viability, T/C [12] was 70.3%. It also gave a viability, T/C [13] of 102%, a viability, T/C [14] of 85% and a viability, T/C [15] of 104%. It also gave a viability, T/C [16] of 92.3%, a viability, T/C [17] of 89.4% and a viability, T/C [18] of 64%. It also gave a viability, T/C [19] of 92.2%, a viability, T/C [20] of 109% and a viability, T/C [21] of 95.8%. It also gave a viability, T/C [22] of 94.5%, a viability, T/C [23] of 97.9% and a viability, T/C [24] of 65.9%. It also gave a viability, T/C [25] of 95.6%, a viability, T/C [26] of 108% and a viability, T/C [27] of 102%. For the same molecule, the viability, T/C [28] was 85.4%, the viability, T/C [29] was 90.2% and the viability, T/C [30] was 68.4%. The viability, T/C [31] was 103%, the viability, T/C [32] was 101% and the viability, T/C [33] was 91.2%. The viability, T/C [34] was 99.5%, the viability, T/C [35] was 88.6% and the viability, T/C [36] was 60.1%. The viability, T/C [37] was 83.7%, the viability, T/C [38] was 97% and the viability, T/C [39] was 87.8%. It also gave a viability, T/C [40] of 84.8%, a viability, T/C [41] of 68.9% and a viability, T/C [42] of 59.2%.

In the case of `CC(Nc1ncnc2nc[nH]c12)c1cc2cccc(Cl)c2c(=O)n1-c1ccccc1` (stereo not drawn), the viability, T/C (compound 0.0316 µM) is reported as 104% [middle of 8 runs], the viability, T/C (compound 0.1 µM) is reported as 104% [middle of 8 runs] and the viability, T/C (compound 0.316 µM) is reported as 103% [middle of 8 runs]. The viability, T/C (compound 1 µM) was 97.5% [middle of 8 runs], the viability, T/C (compound 3.16 µM) was 97.1% [middle of 8 runs] and the viability, T/C (compound 10 µM) was 90.1% [middle of 8 runs]. The IC50 (compound alone, run of 04/25/2023) was > 10 µM.
